# Key:
# Nb-EC03 = assay: Nb-based indirect competitive ELISA for EC5026 (EC5026 immunoassay); settings: for EC5026 immunoassay CR: CR% = IC50 (EC5026)/IC50 (analog) × 100%; for EC5026 immunoassay IC50: Nb-EC03, cAg 2-BSA
# Protocol: (d) 100 μL of HRP-anti-HA was introduced, incubated and shaken for another 60 min; (e) after the final washing step, 100 μL of the TMB substrate solution was added and incubated for 15 min, followed by being stopped by 50 μL of H2SO4 solution (1.0 M). […] The linear range was established between the IC20 value and the IC80 value.
# [1] = LC-MS analysis of urine samples from human clinical trial with EC5026; assay type: in vivo
# Protocol: To assess the feasibility of Nb-based ELISAs for EC5026 and TPPU, the human urine and FBS were used as the matrix for precision and accuracy determination. The precision is shown as coefficient variation (CV%). The accuracy is expressed by the recovery, and the recovery is calculated as (Found concentration/Spiked concentration) × 100%. The standard solutions of EC5026 or TPPU were spiked blindly into human urine and FBS to obtain final concentrations of 1.25, 5 and 20 ng/mL, respectively. The experimental urine samples were collected from participants in the human clinical trial for EC5026, and the supernatant was collected by centrifugation (10,000 g, 5 min, 4 °C). The processed clinical samples were divided into two aliquots. One was diluted 10 times and then was detected by the Nb-based ELISA, and the other was for the LC-MS analysis directly in a bind fashion by different scientists.
# The urine samples were analyzed by an LC-MS/MS method using Waters (Milford, MA, USA) Acquity UPLC system with Waters Xevo TQS tandem mass spectrometer. The separation was implemented on a Phenomenex Kinetex 150 x 2 mm C18 column. The mobile phases are 0.1 % of acetic acid in water as phase A, 0.1% of acetic acid in methanol as phase B. The gradient of the separation started from 50% of B and increased to 63% of B at 3.6 min then ramped to 95% at 4 min. The flow rate was 0.4 mL/min. The mass spectrometer was operated with negative electrospray ionization. The MRM transitions are 404.2/194 for EC5026, 420.2/194 for both M1 and M2. The source parameters of mass spectrometer are: capillary voltage: –3 KV, desolvation temperature: 300°C, desolvation gas flow: 800 L/hr; cone: 150 L/min; nebulizer: 7 bar.
# Nb-TP02 = assay: Nb-based indirect competitive ELISA for TPPU (TPPU immunoassay); assay type: binding, llama; settings: for TPPU immunoassay CR: CR% = IC50 (TPPU)/IC50 (analog) × 100%; for TPPU immunoassay IC50: Nb-TP02, cAg 6-OVA
# From the text: The limit of detection (LOD) of Nb-based ELISAs for detecting the concentrations of the sEHI was defined as the concentration of sEHI that provided a 10% inhibition rate (IC10 value). […]
# human sEH [2] = biological target: T1, human sEH (Homo sapiens, UniProt P34913); assay: Activity on the target sEH enzyme; assay type: biochemical
# T1 sequence (P34913 1-555): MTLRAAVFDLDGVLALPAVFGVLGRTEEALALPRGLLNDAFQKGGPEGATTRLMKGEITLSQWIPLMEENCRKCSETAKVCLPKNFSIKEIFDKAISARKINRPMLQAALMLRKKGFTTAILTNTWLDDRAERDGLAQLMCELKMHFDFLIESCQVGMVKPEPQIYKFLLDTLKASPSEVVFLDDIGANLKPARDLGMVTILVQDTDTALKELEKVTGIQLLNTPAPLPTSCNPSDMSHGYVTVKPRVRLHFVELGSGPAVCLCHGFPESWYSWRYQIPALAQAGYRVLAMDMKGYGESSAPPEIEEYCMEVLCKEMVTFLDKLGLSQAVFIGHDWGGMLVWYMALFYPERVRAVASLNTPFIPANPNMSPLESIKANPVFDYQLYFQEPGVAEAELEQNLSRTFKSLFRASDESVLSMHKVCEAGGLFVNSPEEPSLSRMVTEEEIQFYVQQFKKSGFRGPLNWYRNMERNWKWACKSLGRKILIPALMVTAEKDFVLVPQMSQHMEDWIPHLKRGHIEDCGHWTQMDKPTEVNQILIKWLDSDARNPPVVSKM
# human sEH [3] = biological target: T1, human sEH; assay: Inhibition of human sEH in vitro (potency unit definition, assay of Jones et al.); assay type: biochemical; settings: 1 nM human sEH, read-out: 1 Potency unit: concentration permitting the inhibition of 50% of 1 nM of the human sEH
# [4] = Subject 1, 0–8 h post exposure to EC5026
# [5] = Subject 1, 8–16 h post exposure to EC5026
# [6] = Subject 1, 16–24 h post exposure to EC5026
# [7] = Subject 1, 24–32 h post exposure to EC5026
# [8] = Subject 1, 32–40 h post exposure to EC5026
# [9] = Subject 1, 40–48 h post exposure to EC5026
# [10] = Subject 2, 0–8 h post exposure to EC5026
# [11] = Subject 2, 8–16 h post exposure to EC5026
# [12] = Subject 2, 16–24 h post exposure to EC5026
# [13] = Subject 2, 24–32 h post exposure to EC5026
# [14] = Subject 2, 32–40 h post exposure to EC5026
# [15] = Subject 2, 40–48 h post exposure to EC5026
# [16] = Subject 3, 0–8 h post exposure to EC5026
# [17] = Subject 3, 8–16 h post exposure to EC5026
# [18] = Subject 3, 16–24 h post exposure to EC5026
# [19] = Subject 3, 24–32 h post exposure to EC5026
# [20] = Subject 3, 32–40 h post exposure to EC5026
# [21] = Subject 3, 40–48 h post exposure to EC5026
smiles,measurement,setting,value
CC[C@H](C)C(=O)N1CCC(NC(=O)Nc2ccc(OC(F)(F)F)c(F)c2)CC1 [EC5026],EC5026 immunoassay CR,Nb-EC03,100%
same,Curve parameters IC50,"Nb-EC03; Nb-EC03, cAg 1-BSA (homologous)",7.32 ng/mL
same,Curve parameters IC50,"Nb-EC03; Nb-EC03, cAg 1-OVA (homologous)",5.68 ng/mL
same,EC5026 immunoassay IC50,Nb-EC03,1.44 ng/mL
same,Curve parameters IC50,"Nb-EC03; Nb-EC03, cAg 2-OVA (homologous)",1.48 ng/mL
same,Curve parameters IC50,"Nb-EC03; Nb-EC03, cAg 3-BSA (heterologous)",11.45 ng/mL
same,Curve parameters IC50,"Nb-EC03; Nb-EC03, cAg 3-OVA (heterologous)",12.49 ng/mL
same,[EC5026] LC-MS analysis,[1]; [4],2.96 ng/mL
same,[EC5026] LC-MS analysis,[1]; [5],1.41 ng/mL
same,[EC5026] LC-MS analysis,[1]; [6],1.81 ng/mL
same,[EC5026] LC-MS analysis,[1]; [7],1.43 ng/mL
same,[EC5026] LC-MS analysis,[1]; [8],1.63 ng/mL
same,[EC5026] LC-MS analysis,[1]; [9],1.24 ng/mL
same,[EC5026] LC-MS analysis,[1]; [10],3.01 ng/mL
same,[EC5026] LC-MS analysis,[1]; [11],5.57 ng/mL
same,[EC5026] LC-MS analysis,[1]; [12],4.86 ng/mL
same,[EC5026] LC-MS analysis,[1]; [13],2.84 ng/mL
same,[EC5026] LC-MS analysis,[1]; [14],3.46 ng/mL
same,[EC5026] LC-MS analysis,[1]; [15],2.01 ng/mL
same,[EC5026] LC-MS analysis,[1]; [16],6.53 ng/mL
same,[EC5026] LC-MS analysis,[1]; [17],4.69 ng/mL
same,[EC5026] LC-MS analysis,[1]; [18],2.59 ng/mL
same,[EC5026] LC-MS analysis,[1]; [19],2.98 ng/mL
same,[EC5026] LC-MS analysis,[1]; [20],2.06 ng/mL
same,[EC5026] LC-MS analysis,[1]; [21],1.18 ng/mL
same,TPPU immunoassay CR,Nb-TP02,86.6%
same,TPPU immunoassay IC50,Nb-TP02,3.44 ng/mL
"Nc1ccc(OC(F)(F)F)cc1 [Compound 15, 4-(trifluoromethoxy)aniline]",EC5026 immunoassay CR,Nb-EC03,<0.01%
same,EC5026 immunoassay IC50,Nb-EC03,>150000 ng/mL
same,TPPU immunoassay CR,Nb-TP02,<0.01%
same,TPPU immunoassay IC50,Nb-TP02,>300000 ng/mL
same,IC50,human sEH [2],> 50000 nM
"C[C@H](O)[C@H](C)C(=O)N1CCC(NC(=O)Nc2ccc(OC(F)(F)F)c(F)c2)CC1 [M2, 1-(3-fluoro-4-(trifluoromethoxy)phenyl)-3-(1-((2S,3S)-3-hydroxy-2-methylbutanoyl)piperidin-4-yl)urea]",IC50,human sEH [3],0.0961 nM
same,EC5026 immunoassay IC50,Nb-EC03,1.38 ng/mL
same,[M2] LC-MS analysis,[1]; [4],28.66 ng/mL
same,[M2] LC-MS analysis,[1]; [5],61.59 ng/mL
same,[M2] LC-MS analysis,[1]; [6],51.04 ng/mL
same,[M2] LC-MS analysis,[1]; [7],67.21 ng/mL
same,[M2] LC-MS analysis,[1]; [8],47.44 ng/mL
same,[M2] LC-MS analysis,[1]; [9],43.94 ng/mL
same,[M2] LC-MS analysis,[1]; [10],12.99 ng/mL
same,[M2] LC-MS analysis,[1]; [11],53.46 ng/mL
same,[M2] LC-MS analysis,[1]; [12],59.34 ng/mL
same,[M2] LC-MS analysis,[1]; [13],45.69 ng/mL
same,[M2] LC-MS analysis,[1]; [14],75.89 ng/mL
same,[M2] LC-MS analysis,[1]; [15],52.38 ng/mL
same,[M2] LC-MS analysis,[1]; [16],14.93 ng/mL
same,[M2] LC-MS analysis,[1]; [17],50.31 ng/mL
same,[M2] LC-MS analysis,[1]; [18],106.12 ng/mL
same,[M2] LC-MS analysis,[1]; [19],44.20 ng/mL
same,[M2] LC-MS analysis,[1]; [20],103.57 ng/mL
same,[M2] LC-MS analysis,[1]; [21],158.70 ng/mL
same,TPPU immunoassay CR,Nb-TP02,59.4%
same,TPPU immunoassay IC50,Nb-TP02,5.01 ng/mL
"CCC(=O)N1CCC(NC(=O)Nc2ccc(OC(F)(F)F)cc2)CC1 [TPPU, 1-trifluoromethoxyphenyl-3-(1-propionylpiperidin-4-yl)urea]",EC5026 immunoassay CR,Nb-EC03,52.9%
same,EC5026 immunoassay IC50,Nb-EC03,2.72 ng/mL
same,TPPU immunoassay CR,Nb-TP02,100%
same,Curve parameters IC50,"Nb-TP02; Nb-TP02, cAg 4-BSA (homologous)",2.53 ng/mL
same,Curve parameters IC50,"Nb-TP02; Nb-TP02, cAg 4-OVA (homologous)",2.76 ng/mL
same,Curve parameters IC50,"Nb-TP02; Nb-TP02, cAg 5-BSA (homologous)",4.53 ng/mL
same,Curve parameters IC50,"Nb-TP02; Nb-TP02, cAg 5-OVA (homologous)",2.44 ng/mL
same,Curve parameters IC50,"Nb-TP02; Nb-TP02, cAg 6-BSA (heterologous)",2.40 ng/mL
same,TPPU immunoassay IC50,Nb-TP02,2.98 ng/mL
O=C(Nc1ccc(OC(F)(F)F)cc1)NC1CCNCC1 [Compound 12],TPPU immunoassay CR,Nb-TP02,25.6%
same,TPPU immunoassay IC50,Nb-TP02,11.66 ng/mL
"C[C@H](C(=O)N1CCC(NC(=O)Nc2ccc(OC(F)(F)F)c(F)c2)CC1)[C@@H](C)O [M1, 1-(3-fluoro-4-(trifluoromethoxy)phenyl)-3-(1-((2S,3R)-3-hydroxy-2-methylbutanoyl)piperidin-4-yl)urea]",IC50,human sEH [3],0.0961 nM
same,EC5026 immunoassay IC50,Nb-EC03,1.47 ng/mL
same,[M1] LC-MS analysis,[1]; [4],24.22 ng/mL
same,[M1] LC-MS analysis,[1]; [5],44.30 ng/mL
same,[M1] LC-MS analysis,[1]; [6],35.82 ng/mL
same,[M1] LC-MS analysis,[1]; [7],48.89 ng/mL
same,[M1] LC-MS analysis,[1]; [8],36.78 ng/mL
same,[M1] LC-MS analysis,[1]; [9],33.49 ng/mL
same,[M1] LC-MS analysis,[1]; [10],12.48 ng/mL
same,[M1] LC-MS analysis,[1]; [11],38.41 ng/mL
same,[M1] LC-MS analysis,[1]; [12],43.37 ng/mL
same,[M1] LC-MS analysis,[1]; [13],35.76 ng/mL
same,[M1] LC-MS analysis,[1]; [14],55.70 ng/mL
same,[M1] LC-MS analysis,[1]; [15],40.74 ng/mL
same,[M1] LC-MS analysis,[1]; [16],13.41 ng/mL
same,[M1] LC-MS analysis,[1]; [17],36.41 ng/mL
same,[M1] LC-MS analysis,[1]; [18],67.03 ng/mL
same,[M1] LC-MS analysis,[1]; [19],31.25 ng/mL
same,[M1] LC-MS analysis,[1]; [20],67.62 ng/mL
same,[M1] LC-MS analysis,[1]; [21],98.28 ng/mL
same,TPPU immunoassay CR,Nb-TP02,72.7%
same,TPPU immunoassay IC50,Nb-TP02,4.10 ng/mL
"Nc1ccc(OC(F)(F)F)c(F)c1 [Compound 14, 3-fluoro-4-(trifluoromethoxy)aniline]",EC5026 immunoassay CR,Nb-EC03,<0.01%
same,EC5026 immunoassay IC50,Nb-EC03,>150000 ng/mL
same,TPPU immunoassay CR,Nb-TP02,<0.01%
same,TPPU immunoassay IC50,Nb-TP02,>300000 ng/mL
same,IC50,human sEH [2],> 50000 nM
"O=C(Nc1ccc(OC(F)(F)F)c(F)c1)NC1CCNCC1 [Compound 11, 1-(3-fluoro-4-(trifluoromethoxy)phenyl)-3-(piperidin-4-yl)urea]",EC5026 immunoassay CR,Nb-EC03,34.0%
same,EC5026 immunoassay IC50,Nb-EC03,4.23 ng/mL
same,TPPU immunoassay CR,Nb-TP02,33.4%
same,TPPU immunoassay IC50,Nb-TP02,8.91 ng/mL

# — publication PMC10568103, “Quantification of soluble epoxide hydrolase inhibitors in experimental and clinical samples using the nanobody-based ELISA” (Journal of Pharmaceutical Analysis, 2023)
